From patent US20250268903A1, “RXFP1 AGONISTS” (BRISTOL-MYERS SQUIBB COMPANY, priority 2021, published 2025)

Each molecule was assayed against T1, human RXFP1 (Homo sapiens, UniProt Q9HBX9) (assay: hRXFP1 HEK293 cAMP assay (HTRF)). Settings: HEK293 cells stably expressing human RXFP1, 30 min at room temperature.
T1 construct: expressed in transfected cells
T1 sequence (Q9HBX9 1-757): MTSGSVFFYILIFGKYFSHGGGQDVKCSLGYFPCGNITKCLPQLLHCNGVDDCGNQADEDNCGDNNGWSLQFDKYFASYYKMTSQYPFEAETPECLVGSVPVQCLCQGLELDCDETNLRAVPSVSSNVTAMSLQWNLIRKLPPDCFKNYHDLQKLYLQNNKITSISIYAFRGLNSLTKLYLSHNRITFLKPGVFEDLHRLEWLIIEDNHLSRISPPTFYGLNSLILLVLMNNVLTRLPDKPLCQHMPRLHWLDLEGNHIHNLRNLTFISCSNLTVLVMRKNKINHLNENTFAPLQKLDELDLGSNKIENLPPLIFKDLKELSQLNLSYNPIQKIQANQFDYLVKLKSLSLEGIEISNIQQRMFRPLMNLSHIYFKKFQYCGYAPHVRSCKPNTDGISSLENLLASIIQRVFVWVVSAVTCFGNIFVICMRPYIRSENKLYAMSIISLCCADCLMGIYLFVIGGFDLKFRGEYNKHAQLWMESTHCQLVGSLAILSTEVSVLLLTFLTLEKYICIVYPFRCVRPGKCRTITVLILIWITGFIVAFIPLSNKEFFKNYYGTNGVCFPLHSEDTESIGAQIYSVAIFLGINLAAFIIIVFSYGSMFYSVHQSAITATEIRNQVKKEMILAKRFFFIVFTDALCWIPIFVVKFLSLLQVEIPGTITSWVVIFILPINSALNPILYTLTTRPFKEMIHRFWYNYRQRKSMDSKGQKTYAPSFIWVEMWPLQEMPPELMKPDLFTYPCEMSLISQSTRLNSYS
Format: cell-based
Summary of the method: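 hRXFP1-HEK293 stable line; HBSS + Ca/Mg, 20 mM HEPES, 0.05% BSA, 0.5 mM IBMX; cpd 0.010 nM–50 μM, 2% DMSO; 30 min RT; lysis, HTRF cAMP detection; 4-PL fit.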

Row | Structure (SMILES) | EC50
1 | COc1ccc(/C=C/C(=O)NCC(F)(F)F)cc1C(=O)NC1C2CCC(/C2=C/C(F)(F)F)[C@@H]1C(=O)Nc1ccc(F)c(C(F)(F)F)c1 (stereo partly drawn) [Example 136, (2S,3R,7Z)-N-[4-fluoro-3-(trifluoromethyl)phe-nyl]-3-{2-methoxy-5-[(1E)-2-[(2,2,2-trifluoroethyl)carba-moyl]eth-1-en-1-yl]benzamido}-7-(2,2,2-trifluoroethylidene)bi-cyclo[2.2.1]heptane-2-carboxamide] | 776 nM
2 | COc1ccc(S(=O)(=O)N2CCNCC2)cc1C(=O)NC1C2CCC(/C2=C/C(F)(F)F)[C@@H]1C(=O)Nc1ccc(F)c(C(F)(F)F)c1 (stereo partly drawn) [Example 203, (2S,3R,7Z)-N-[4-fluoro-3-(trifluoromethyl)phe-nyl]-3-[2-methoxy-5-(piperazine-1-sulfonyl)benzamido]-7-(2,2,2-trifluoroethylidene)bi-cyclo[2.2.1]heptane-2-carboxamide] | 858 nM
3 | CCOC(=O)C1CCC(c2ccc(OC)c(C(=O)NC3C4CCC(/C4=C/C(F)(F)F)[C@@H]3C(=O)Nc3ccc(F)c(C(F)(F)F)c3)c2)CC1 (stereo partly drawn) [Example 143, ethyl 4-(3-{[(2R,3S,7Z)-3-{[4-fluoro-3-(trifluoromethyl)phe-nyl]carbamoyl}-7-(2,2,2-trifluoroethylidene)bi-cyclo[2.2.1]heptan-2-yl]carbamoyl}-4-methoxyphenyl)cyclo-hexane-1-carboxylate] | 202 nM
4 | COc1ccc(CCCNC(=O)C2CCC2)cc1C(=O)N[C@@H]1C2CCC(/C2=C/C(F)(F)F)[C@@H]1C(=O)Nc1ccc(F)c(C(F)(F)F)c1 (stereo partly drawn) [Example 112, (2S,3R,7Z)-3-{5-[3-(cyclobutylformami-do)propyl]-2-methoxybenzamido}-N-[4-fluoro-3-(trifluoromethyl)phe-nyl]-7-(2,2,2-trifluoroethylidene)bi-cyclo[2.2.1]heptane-2-carboxamide] | 324 nM
5 | COc1ccc(CCC(C)(C)O)cc1C(=O)NC1C2CCC(/C2=C/C2CCCC2)[C@@H]1C(=O)Nc1ccc(F)c(C(F)(F)F)c1 (stereo partly shown) [Example 168, (7Z)-7-(cyclopentylmethyli-dene)-N-[4-fluoro-3-(trifluoromethyl)phe-nyl]-3-[5-(3-hydroxy-3-methylbutyl)-2-methoxybenzamido] bicyclo[2.2.1]heptane-2-carboxamide] | 8 nM
6 | COc1ccc(CCCO)cc1C(=O)N[C@@H]1C2CCC(/C2=C/C2CC2)[C@@H]1C(=O)Nc1ccc(F)c(C(F)(F)F)c1 (stereo partly drawn) [Example 91, (2S,3R,7Z)-7-(cyclopropylmethyli-dene)-N-[4-fluoro-3-(trifluoromethyl)phe-nyl]-3-[5-(3-hydroxypropyl)-2-methoxybenzamido] bicyclo[2.2.1]heptane-2-carboxamide] | 70 nM
7 | COc1ccc(C2CCC2)cc1C(=O)N[C@H]1[C@@H](C(=O)Nc2ccc(F)c(C(F)(F)F)c2)[C@H]2CC[C@@H]1/C2=C\C(F)(F)F [Example 176, (1R,2S,3R,4R,Z)-3-(5-cyclobutyl-2-methoxybenzamido)-N-(4-fluoro-3-(trifluoromethyl)phenyl)-7-(2,2,2-trifluoroethylidene) bicyclo[2.2.1]heptane-2-carboxamide] | 738 nM
8 | COc1ccc(C2CC(C(C)(C)O)C2)cc1C(=O)N[C@H]1[C@@H](C(=O)Nc2ccc(F)c(C(F)(F)F)c2)[C@H]2CC[C@@H]1/C2=C\C1CCCC1 (stereo partly drawn) [Example 363, (1R,2S,3R,4R,Z)-7-(cyclopentyl-methylene)-N-(4-fluoro-3-(trifluoromethyl)phenyl)-3-(5-(3-(2-hydroxypropan-2-yl)cyclobutyl)-2-methoxybenzamido) bicyclo[2.2.1] heptane-2-carboxamide] | 3.9 nM
9 | COc1c(F)cc(C(=O)NCC2(S(C)(=O)=O)CC2)cc1C(=O)N[C@H]1[C@@H](C(=O)Nc2ccc(F)c(C(F)(F)F)c2)[C@H]2CC[C@@H]1/C2=C\C1CC(F)(F)C1 [Example 374, N3-[(1R,2R,3S,4R,7Z)-7-[(3,3-difluorocyclobutyl)methylidene]-3-{[4-fluoro-3-(trifluoromethyl)phenyl]carbamoyl}bicyclo[2.2.1]heptan-2-yl]-5-fluoro-N1-[(1-methanesulfonyl-cyclopropyl)methyl]-4-methoxybenzene-1,3-dicarboxamide] | 6.9 nM
10 | COc1ccc(C(=O)N2CC(O)C2)cc1C(=O)N[C@H]1[C@@H](C(=O)Nc2ccc(F)c(C(F)(F)F)c2)[C@H]2CC[C@@H]1/C2=C\C1CC1 [Example 251, (1R,2S,3R,4R,7Z)-7-(cyclopropylmethyl-idene)-N-[4-fluoro-3-(trifluoromethyl)phenyl]-3-[5-(3-hydroxyazetidine-1-carbonyl)-2-methoxybenzamido] bicyclo[2.2.1]heptane-2-carboxamide] | 44 nM
11 | COc1ccc(/C=C/C(=O)NC2CCC2)cc1C(=O)NC1C2CCC(/C2=C/C(F)(F)F)[C@@H]1C(=O)Nc1ccc(F)c(C(F)(F)F)c1 (stereo partly drawn) [Example 135, (2S,3R,7Z)-3-{5-[(1E)-2-(cyclobutylcarbamoyl)eth-1-en-1-yl]-2-methoxybenzamido}-N-[4-fluoro-3-(trifluoromethyl)phe-nyl]-7-(2,2,2-trifluoroethylidene)bi-cyclo[2.2.1]heptane-2-carboxamide] | 644 nM
12 | COc1ccc(CCC(=O)NC2CCC2)cc1C(=O)NC1C2CCC(/C2=C/C(F)(F)F)[C@@H]1C(=O)Nc1ccc(F)c(C(F)(F)F)c1 (stereo partly drawn) [Example 139, (2S,3R,7Z)-3-{5-[2-(cyclobutylcarbamoyl)ethyl]-2-methoxybenzamido}-N-[4-fluoro-3-(trifluoromethyl)phe-nyl]-7-(2,2,2-trifluoroethylidene)bi-cyclo[2.2.1]heptane-2-carboxamide] | 694 nM
13 | COc1c(F)cc(C(=O)NCC2(S(C)(=O)=O)CC2)cc1C(=O)N[C@H]1[C@@H](C(=O)Nc2ccc(F)c(C(F)(F)F)c2)[C@H]2CC[C@@H]1/C2=C\C(F)(F)F [Example 368, 5-fluoro-N3-[(1R,2R,3S,4R,7Z)-3-{[4-fluoro-3-(trifluoromethyl)phenyl]carbamoyl}-7-(2,2,2-trifluoroethylidene)bicyclo[2.2.1]heptan-2-yl]-N1-[(1-methanesulfonyl-cyclopropyl)methyl]-4-methoxybenzene-1,3-dicarboxamide] | 9.1 nM
14 | COc1ccc(CCCOc2nc3ccccc3n2C)cc1C(=O)N[C@@H]1C2CCC(/C2=C/C(F)(F)F)[C@@H]1C(=O)Nc1ccc(F)c(C(F)(F)F)c1 (stereo partly drawn) [Example 105, (2S,3R,7Z)-N-[4-fluoro-3-(trifluoromethyl)phe-nyl]-3-(2-methoxy-5-{3-[(1-methyl-1H-1,3-benzodiazol-2-yl)oxy]propyl}benza-mido)-7-(2,2,2-trifluoroethylidene)bi-cyclo[2.2.1]heptane-2-carboxamide] | 1640 nM
15 | COc1ccc(CCCO)cc1C(=O)NC1C2CCC(/C2=C/C2CCCOC2)[C@@H]1C(=O)Nc1ccc(F)c(C(F)(F)F)c1 (single isomer, unassigned) [Example 170, (7Z)-N-[4-fluoro-3-(trifluoromethyl)phe-nyl]-3-[5-(3-hydroxypropyl)-2-methoxybenzamido]-7-[(oxan-3-yl)methylidene]bicy-clo[2.2.1]heptane-2-carboxamide] | 51 nM
16 | COc1ccc(C(=O)N2CC[C@@H](O)C2)cc1C(=O)N[C@H]1[C@@H](C(=O)Nc2ccc(F)c(C(F)(F)F)c2)[C@H]2CC[C@@H]1/C2=C\C1CC1 [Example 244, (1R,2S,3R,4R,7Z)-7-(cyclopropyl-methylidene)-N-[4-fluoro-3-(trifluoromethyl)phenyl]-3-{5-[(3R)-3-hydroxypyrrolidine-1-carbonyl]-2-methoxybenzamido} bicyclo[2.2.1]heptane-2-carboxamide] | 11 nM
17 | COc1ccc(COCC2COC2)cc1C(=O)N[C@@H]1C2CCC(/C2=C/C2CC2)[C@@H]1C(=O)Nc1ccc(F)c(C(F)(F)F)c1 (stereo partly drawn) [Example 16, (2S,3R,7Z)-7-(cyclopropylmethyli-dene)-N-[4-fluoro-3-(trifluoromethyl)phe-nyl]-3-(2-methoxy-5-{[(oxetan-3-yl)methoxy]methyl}benzamido)bi-cyclo[2.2.1]hept-ane-2-carboxamide] | 94 nM
18 | COc1ccc(C2CC3CC(O)CC32)cc1C(=O)N[C@H]1[C@@H](C(=O)Nc2ccc(F)c(C(F)(F)F)c2)[C@H]2CC[C@@H]1/C2=C\C1CC1 (single isomer, unassigned) [Example 343] | 75.2 nM
19 | COc1ccc(CCCC(F)(F)F)cc1C(=O)NC1C2CCC(/C2=C/C2CCC2)[C@@H]1C(=O)Nc1ccc(F)c(C(F)(F)F)c1 (stereo partly shown) [Example 195, (7Z)-7-(cyclobutylmethylidene)-N-[4-fluoro-3-(trifluoromethyl)phe-nyl]-3-[2-methoxy-5-(4,4,4-trifluorobutyl)benza-mido]bicyclo[2.2.1] heptane-2-carboxamide] | 59 nM
